In US8354522B2, “Immunostimulatory oligoribonucleotides” (Coley Pharmaceutical GmbH, priority 2005, dated 2013):
pEC50: −log10 of the molar value. Read-outs that look alike come from different tables or passages of the source.

System: Human PBMC
Assay: Cytokine production upon human PBMC stimulation (ORN complexed to DOTAP, 16 h, ELISA)
Format: cell-based
Design: key to IFN-alpha / TNF-alpha: +: cytokine production; −: no cytokine production
Details: for IFN-alpha / TNF-alpha: human PBMC stimulated for 16 h, supernatant ELISA; for pEC50 / IFN-alpha max activity / TNF-alpha max activity: human PBMC, ORN complexed to DOTAP, 16 h; for pEC50: full titration 2 μM to 0.9 nM; for IFN-alpha max activity / TNF-alpha max activity: mean max activity at 0.6 μM, 3-6 blood donors
Procedure: Human peripheral blood mononuclear cells (PBMCs) were isolated from healthy donors, plated, and stimulated in vitro with various test and control immunostimulatory agents for 16 hours. After 16 hours, the supernatants were collected and then analyzed by ELISA assay. N-U-R1-R2,-Containing Oligoribonucleotides were tested complexed to DOTAP and with full titration curves (7 concentrations), starting from 2 μM ORN complexed to 25 μg/ml DOTAP and with 1/3 dilution steps. Also included were certain negative controls, including medium alone and DOTAP (25 μg/ml culture well; “Liposomes”) alone. The control immunostimulatory agents included the imidazoquinoline R-848 (2 μM with 1/3 dilution steps and 7 concentrations) the reported ligand for TLR7, ORN having TLR8 motifs such as AU and AUU sequences (SEQ ID NO:13-SEQ ID NO:15) ORN having TLR7/8 motifs such as CU, GU and GUU sequences (SEQ ID NO:19-SEQ ID NO:23).
Human PBMC were stimulated with ORN complexed to DOTAP. After 16 hours supernatants were harvested and TNF-alpha and IFN-alpha levels were measured. Mean/Max activities at 0.6 μM of 3-6 blood donors and two individual experiments were determined. […] TLR8 and TLR7/8 ORN are divided by a red line.
Human PBMC were stimulated with ORN complexed to DOTAP. After 16 hours supernatants were harvested and IFN-alpha levels were measured. Mean/Max activities at 0.6 μM and EC50 of full titration curves (range: 2 μM to 0.9 nM) of 3-6 blood donors and two individual experiments were determined. […] Low EC50/high Max activity represents TLR7/8 ORN (FIG. 5a) whereas high EC50 and low Max activity represents TLR8 ORN (FIG. 5b).
The ORN sequences listed in Table 1 were tested for IFN-alpha and TNF-alpha production upon human PBMC stimulation. Human PBMC were stimulated for 16 h with the indicated ORN, and supernatants were harvested and cytokine production measured by ELISA. Table 2 summarizes the min/max activity and EC50 of ORN for IFN-alpha and TNF-alpha production.

Substance | IFN-alpha | TNF-alpha | pEC50 (read-out: IFN-alpha EC50) | pEC50 (read-out: TNF-alpha EC50) | IFN-alpha max activity | TNF-alpha max activity
A*A*A*A*U*A*A*A*A*U*A*A*A*A*U*A*A*A*A*U (AAAAUAAAAUAAAAUAAAAU; listed as RNA, chemistry not fully specified) [SEQ ID NO: 18] | − | + |  |  |  | 
A*A*A*U*A*A*A*U*A*A*A*U*A*A*A*U*A*A*A*U (AAAUAAAUAAAUAAAUAAAU; listed as RNA, chemistry not fully specified) [SEQ ID NO: 17] | − | + |  |  |  | 
A*A*U*A*A*U*A*A*U*A*A*U*A*A*U*A*A*U*A*A (AAUAAUAAUAAUAAUAAUAA; listed as RNA, chemistry not fully specified) [SEQ ID NO: 16] | − | + |  |  |  | 
A*U*A*G*G*C*A*C (AUAGGCAC; phosphorothioate linkages, chemistry not fully specified) [SEQ ID NO: 4] | − | + |  |  |  | 
C*C*G*A*G*C*C*A*U*A*U*A*U*A*U*C (CCGAGCCAUAUAUAUC; listed as RNA, chemistry not fully specified) [SEQ ID NO: 39] |  |  | ≤ 5.82 | 6.49 | 356.7 pg/mL | 19253 pg/mL
C*C*G*A*G*C*C*A*U*A*U*A*U*C*C*C (CCGAGCCAUAUAUCCC; listed as RNA, chemistry not fully specified) [SEQ ID NO: 38] |  |  | ≤ 5.82 | 6.05 | 245 pg/mL | 14064 pg/mL
C*C*G*A*G*C*C*G*A*A*G*A*U*A*C*C (CCGAGCCGAAGAUACC; listed as RNA, chemistry not fully specified) [SEQ ID NO: 85] |  |  | < 5.70 | 6.67 | 193.7 pg/mL | 17146 pg/mL
C*C*G*A*G*C*C*G*A*A*G*C*U*A*C*C (CCGAGCCGAAGCUACC; listed as RNA, chemistry not fully specified) [SEQ ID NO: 87] |  |  | < 5.70 | 6.46 | 100.5 pg/mL | 12979 pg/mL
C*C*G*A*G*C*C*G*A*A*G*C*U*C*C*C (CCGAGCCGAAGCUCCC; listed as RNA, chemistry not fully specified) [SEQ ID NO: 84] |  |  | < 5.70 | 6.42 | 67.76 pg/mL | 8545 pg/mL
C*C*G*A*G*C*C*G*A*A*G*C*U*G*C*C (CCGAGCCGAAGCUGCC; listed as RNA, chemistry not fully specified) [SEQ ID NO: 88] |  |  | < 5.70 |  | 73.19 pg/mL | 11996 pg/mL
C*C*G*A*G*C*C*G*A*A*G*G*C*A*C*C (CCGAGCCGAAGGCACC; listed as RNA, chemistry not fully specified) [SEQ ID NO: 56] |  |  | < 5.70 |  | 59.84 pg/mL | 4430 pg/mL
C*C*G*A*G*C*C*G*A*A*G*G*U*A*C*C (CCGAGCCGAAGGUACC; listed as RNA, chemistry not fully specified) [SEQ ID NO: 82] |  |  | < 5.70 | 6.66 | 204 pg/mL | 12595 pg/mL
C*C*G*A*G*C*C*G*A*A*G*G*U*C*C*C (CCGAGCCGAAGGUCCC; listed as RNA, chemistry not fully specified) [SEQ ID NO: 86] |  |  | 6.12 | 6.07 | 856.5 pg/mL | 4178 pg/mL
C*C*G*A*G*C*C*G*A*A*G*G*U*G*C*C (CCGAGCCGAAGGUGCC; listed as RNA, chemistry not fully specified) [SEQ ID NO: 83] |  |  | < 5.70 | 6.67 | 96.22 pg/mL | 12207 pg/mL
C*C*G*A*G*C*C*G*A*A*U*A*A*C*C*C (CCGAGCCGAAUAACCC; listed as RNA, chemistry not fully specified) [SEQ ID NO: 40] |  |  | ≤ 5.82 | 6.45 | 235.3 pg/mL | 18083 pg/mL
C*C*G*A*G*C*C*G*A*A*U*A*C*C*C*C (CCGAGCCGAAUACCCC; listed as RNA, chemistry not fully specified) [SEQ ID NO: 42] |  |  | ≤ 5.82 | 6.40 | 392.4 pg/mL | 17418 pg/mL
C*C*G*A*G*C*C*G*A*A*U*C*C*C*C*C (CCGAGCCGAAUCCCCC; listed as RNA, chemistry not fully specified) [SEQ ID NO: 44] |  |  | ≤ 5.82 | 6.49 | 305.6 pg/mL | 19473 pg/mL
C*C*G*A*G*C*C*G*A*A*U*G*U*A*C*C (CCGAGCCGAAUGUACC; listed as RNA, chemistry not fully specified) [SEQ ID NO: 63] |  |  | 5.74 | 6.51 | 177.3 pg/mL | 34219 pg/mL
C*C*G*A*G*C*C*G*A*A*U*U*C*A*C*C (CCGAGCCGAAUUCACC; listed as RNA, chemistry not fully specified) [SEQ ID NO: 80] |  |  | 7.48 | 6.66 | 1225 pg/mL | 28108 pg/mL
C*C*G*A*G*C*C*G*A*A*U*U*U*A*C*C (CCGAGCCGAAUUUACC; listed as RNA, chemistry not fully specified) [SEQ ID NO: 60] |  |  | 6.96 | 6.73 | 1463 pg/mL | 36562 pg/mL
C*C*G*A*G*C*C*G*A*C*U*G*U*A*C*C (CCGAGCCGACUGUACC; listed as RNA, chemistry not fully specified) [SEQ ID NO: 61] |  |  | 6.13 | 6.85 | 587.7 pg/mL | 42180 pg/mL
C*C*G*A*G*C*C*G*A*C*U*U*U*A*C*C (CCGAGCCGACUUUACC; listed as RNA, chemistry not fully specified) [SEQ ID NO: 57] |  |  | 7.11 | 6.67 | 1499 pg/mL | 33624 pg/mL
C*C*G*A*G*C*C*G*A*G*C*U*C*A*C*C (CCGAGCCGAGCUCACC; listed as RNA, chemistry not fully specified) [SEQ ID NO: 81] |  |  | 6.18 | 6.10 | 842.9 pg/mL | 14519 pg/mL
C*C*G*A*G*C*C*G*A*G*U*U*C*A*C*C [SEQ ID NO: 67] (CCGAGCCGAGUUCACC; listed as RNA, chemistry not fully specified) |  |  | 7.09 | 7.10 | 2094 pg/mL | 40729 pg/mL
C*C*G*A*G*C*C*G*A*G*U*U*C*A*C*C [SEQ ID NO: 77] (CCGAGCCGAGUUCACC; listed as RNA, chemistry not fully specified) |  |  | 6.82 | 6.59 | 2519 pg/mL | 21820 pg/mL
C*C*G*A*G*C*C*G*A*G*U*U*U*A*C*C (CCGAGCCGAGUUUACC; listed as RNA, chemistry not fully specified) [SEQ ID NO: 58] |  |  | 7.20 | 6.69 | 1760 pg/mL | 36627 pg/mL
C*C*G*A*G*C*C*G*A*T*U*G*U*A*C*C (CCGAGCCGANUGUACC; Oligoribonucleotide, chemistry of T and the '*' linkage is not given here, further chemistry not given here) [SEQ ID NO: 62] |  |  | 6.56 | 6.46 | 1945 pg/mL | 37334 pg/mL
C*C*G*A*G*C*C*G*A*T*U*U*C*A*C*C [SEQ ID NO: 68] (CCGAGCCGANUUCACC; Oligoribonucleotide, chemistry of T and the '*' linkage is not given here, further chemistry not given here) |  |  | 7.74 | 6.66 | 1821 pg/mL | 29647 pg/mL
